# Results: US20220330549A1, “USE OF N-BENZYLBENZAMIDE-BASED COMPOUND AS HERBICIDE” (Northwest A&F University, priority 2020, published 2022)
# Columns and labels:
# Format in all cases: in vivo
# Amaranthus retroflexus [1] = assay: Herbicidal activity test for indoor pre-emergence soil treatment; design: key: 1-9 levels; higher = more weed remaining vs blank control; settings: 150 g a.i./ha, visual inspection 21 days after treatment
# Protocol: (§1) The herbicidal activity test for indoor pre-emergence soil treatment was performed with some of the N-benzylbenzamide-based compounds of general formula I or II with reference to the method of NY/T 1155.3-2006. Neutral sandy loam soil having an organic content of ≤2% was added to fill ⅘ of the pot, and the soil was completely moistened by infiltrating irrigation from the bottom of the pot. The seeds of the test weed were evenly spread on the soil surface, and then covered by 0.5 cm to 2.0 cm of soil depending on the seed size. Representative compounds in the examples were used to prepare emulsifiable concentrates (10%), and spray treatments to the soil were performed 24 hours after the sowing with the test agents diluted with water, at a spraying dosage of 150 g(a.i.)/ha. Then, the results were investigated by visual inspection 21 days after the treatments. The herbicidal activity of the agent was evaluated on a scale of 1-9 levels according to the symptoms and severity of damage to the test weeds.
# (§2) Level 2: equivalent to 0 to 2.5% of the weed in the blank control area;
# (§3) Level 3: equivalent to 2.6 to 5% of the weed in the blank control area;
# (§4) Level 4: equivalent to 5.1 to 10% of the weed in the blank control area;
# (§5) Level 5: equivalent to 10.1 to 15% of the weed in the blank control area;
# (§6) Level 6: equivalent to 15.1 to 25% of the weed in the blank control area;
# (§7) Level 7: equivalent to 25.1 to 35% of the weed in the blank control area;
# (§8) Level 8: equivalent to 35.1 to 67.5% of the weed in the blank control area; and
# (§9) Level 9: equivalent to 67.6 to 100% of the weed in the blank control area.
# Digitaria sanguinalis [2] = assay: as above; design: key: 1-9 levels; higher = more weed remaining vs blank control; settings: 150 g a.i./ha, visual inspection 21 days after treatment
# Protocol: as §1, §2, §3, §4, §5, §6, §7, §8, §9
# green bristlegrass [3] = assay: Herbicidal activity test for indoor post-emergence spraying on stems and leaves; design: key: grade level by weed remaining vs blank control, e.g. 5 = 10.1-15%; settings: 150 g a.i./ha, visual inspection 21 days after treatment
# Protocol: (§10) The post-emergence herbicidal activity test was performed with some of the N-benzylbenzamide-based compounds of general formula I or II with reference to the method of NY/T 1155.4-2006. […] After the sowing, the weed was moved to a greenhouse for regular cultivation. […] Then, the results were investigated by visual inspection 21 days after the treatments. […] Level 5: equivalent to 10.1 to 15% of the weed in the blank control area; Level 6: equivalent to 15.1 to 25% of the weed in the blank control area; Level 7: equivalent to 25.1 to 35% of the weed in the blank control area; Level 8: equivalent to 35.1 to 67.5% of the weed in the blank control area; and […]
# Amaranthus retroflexus [4] = assay: as above; design: key: grade level by weed remaining vs blank control, e.g. 5 = 10.1-15%; settings: 150 g a.i./ha, visual inspection 21 days after treatment
# Protocol: as §10
# Barnyard grass [5] = assay: as above; design: key: grade level by weed remaining vs blank control, e.g. 5 = 10.1-15%; settings: 150 g a.i./ha, visual inspection 21 days after treatment
# Protocol: as §10
# Humulus scandens [6] = assay: as above; design: key: grade level by weed remaining vs blank control, e.g. 5 = 10.1-15%; settings: 150 g a.i./ha, visual inspection 21 days after treatment
# Protocol: as §10
# Digitaria sanguinalis [7] = assay: as above; design: key: grade level by weed remaining vs blank control, e.g. 5 = 10.1-15%; settings: 150 g a.i./ha, visual inspection 21 days after treatment
# Protocol: as §10
# Piemarker [8] = assay: as above; design: key: grade level by weed remaining vs blank control, e.g. 5 = 10.1-15%; settings: 150 g a.i./ha, visual inspection 21 days after treatment
# Protocol: as §10
# Broadleaf weed = assay: Post-emergence herbicidal activity test in a paddy field; design: key: level scale; higher level = more weed left vs blank control; settings: 150 g a.i./ha (penoxsulam control 250 g(a.i.)/h)
# Protocol: (§11) The post-emergence herbicidal activity test was performed in a paddy field with some of the N-benzylbenzamide-based compounds of general formula I or II with reference to the method of GB/T 17980.40-2000. […] Spray treatments were performed in the stage where 4 leaves to 5 leaves were grown for the rice seedlings which was about 1 month after the sowing. Representative compounds in the examples were used to prepare emulsifiable concentrates (10%), and spray treatments were performed with the concentrates in water at a dosage of 150 g(a.i.)/ha, and repeated 4 times for each treatment, and the area was 50 m^2. 25 g/L of penoxsulam suspension was used as a control agent and applied at a dosage of 250 g(a.i.)/h. The results were investigated by a value estimating survey method 15 days and 30 days after the treatments. The relative weed population quantities were estimated by comparing each agent treated area with an adjacent blank control area, and the results of which were investigated with the following grading standard method using the overall coverage of the weed population as an indicator.
# as §2, §3, §4, §5, §6, §7, §8, §9
# Gramineae = assay: as above; design: key: level scale; higher level = more weed left vs blank control; settings: 150 g a.i./ha (penoxsulam control 250 g(a.i.)/h)
# Protocol: as §11, §2, §3, §4, §5, §6, §7, §8, §9
# Cyperaceae = assay: as above; design: key: level scale; higher level = more weed left vs blank control; settings: 150 g a.i./ha (penoxsulam control 250 g(a.i.)/h)
# Protocol: as §11, §2, §3, §4, §5, §6, §7, §8, §9
# Chenopodium album = assay: Field test for weed control in a corn field; settings: 150 g a.i./ha, after treatment
# Protocol: (§12) The weed control efficacy field test was performed in a corn field with some of the N-benzylbenzamide-based compounds of general formula I or II with reference to the method of GB/T 17980.42-2000. […] Spray treatments were performed in the stage where 2 leaves to 5 leaves were grown for the corns after the sowing. Representative compounds in the examples were used to prepare emulsifiable concentrates (10%), and spray treatments were performed with the concentrates in water at a dosage of 150 g(a.i.)/ha, and repeated 4 times for each treatment, and the area was 20 m^2. Oil dispersion with 25% of mesotrione was used as a control agent and applied at a dosage of 150 g(a.i.)/h. […] The herbicidal activities of the agents were evaluated on a scale of 1-9 levels according to the symptoms and severity of damage to the test weeds.
# as §2, §3, §4, §5, §6, §7, §8, §9
# green bristlegrass [9] = assay: Field test for weed control in a corn field; settings: 150 g a.i./ha, after treatment
# Protocol: as §12, §2, §3, §4, §5, §6, §7, §8, §9
# Portulaca oleracea = assay: Field test for weed control in a corn field; settings: 150 g a.i./ha, after treatment
# Protocol: as §12, §2, §3, §4, §5, §6, §7, §8, §9
# Acalypha australis = assay: Field test for weed control in a corn field; settings: 150 g a.i./ha, after treatment
# Protocol: as §12, §2, §3, §4, §5, §6, §7, §8, §9
# Amaranthus retroflexus [10] = assay: Field test for weed control in a corn field; settings: 150 g a.i./ha, 30 days after treatment
# Protocol: as §12, §2, §3, §4, §5, §6, §7, §8, §9
# Solanum nigrum = assay: Field test for weed control in a corn field; settings: 150 g a.i./ha, 30 days after treatment
# Protocol: as §12, §2, §3, §4, §5, §6, §7, §8, §9
# Convolvulus arvensis = assay: Field test for weed control in a corn field; settings: 150 g a.i./ha, after treatment
# Protocol: as §12, §2, §3, §4, §5, §6, §7, §8, §9
# Barnyard grass [11] = assay: Field test for weed control in a corn field; settings: 150 g a.i./ha, 30 days after treatment
# Protocol: as §12, §2, §3, §4, §5, §6, §7, §8, §9
# Digitaria sanguinalis [12] = assay: Field test for weed control in a corn field; settings: 150 g a.i./ha, after treatment
# Protocol: as §12, §2, §3, §4, §5, §6, §7, §8, §9
# goosegrass = assay: Field test for weed control in a corn field; settings: 150 g a.i./ha, after treatment
# Protocol: as §12, §2, §3, §4, §5, §6, §7, §8, §9
# nutgrass flatsedge = assay: Field test for weed control in a corn field; settings: 150 g a.i./ha, after treatment
# Protocol: as §12, §2, §3, §4, §5, §6, §7, §8, §9
# Humulus scandens [13] = assay: Herbicidal activity test for indoor pre-emergence soil treatment; settings: 150 g a.i./ha, visual inspection 21 days after treatment
# Protocol: as §1, §2, §3, §4, §5, §6, §7, §8, §9
# green bristlegrass [14] = assay: as above; design: key: level 1-9; higher = more weed remaining vs blank control; settings: 150 g a.i./ha, visual inspection 21 days after treatment
# Protocol: as §1, §2, §3, §4, §5, §6, §7, §8, §9
# Barnyard grass [15] = assay: as above; design: key: level 1-9; higher = more weed remaining vs blank control; settings: 150 g a.i./ha, visual inspection 21 days after treatment
# Protocol: as §1, §2, §3, §4, §5, §6, §7, §8, §9
# Piemarker [16] = assay: as above; design: key: level 1-9; higher = more weed remaining vs blank control; settings: 150 g a.i./ha, visual inspection 21 days after treatment
# Protocol: as §1, §2, §3, §4, §5, §6, §7, §8, §9
smiles,measurement,setting,value
COc1ncccc1C(=O)NCc1cccc(C)c1 [Compound A85],Herbicidal Activity Amaranthus retroflexus,Amaranthus retroflexus [1],2 (equivalent to 0 to 2.5% of the weed in the blank control area)
same,Herbicidal Activity Digitaria sanguinalis,Digitaria sanguinalis [2],1
same,Herbicidal Activity Green bristlegrass,green bristlegrass [3],1
same,Herbicidal Activity Amaranthus retroflexus,Amaranthus retroflexus [4],1
same,Herbicidal Activity Barnyard grass,Barnyard grass [5],1
same,Herbicidal Activity Humulus scandens,Humulus scandens [6],1
same,Herbicidal Activity Digitaria sanguinalis,Digitaria sanguinalis [7],1
same,Herbicidal Activity Piemarker,Piemarker [8],1
same,Herbicidal activity 15 days after treatment Broadleaf weed,Broadleaf weed; 15 days after treatment,1
same,Herbicidal activity 30 days after treatment Broadleaf weed,Broadleaf weed; 30 days after treatment,1
same,Herbicidal activity 15 days after treatment Gramineae,Gramineae; 15 days after treatment,2 (equivalent to 0 to 2.5% of the weed in the blank control area)
same,Herbicidal activity 30 days after treatment Gramineae,Gramineae; 30 days after treatment,1
same,Herbicidal activity 15 days after treatment Cyperaceae,Cyperaceae; 15 days after treatment,1
same,Herbicidal activity 30 days after treatment Cyperaceae,Cyperaceae; 30 days after treatment,1
same,"Post-emergence weed control effect, Chenopodium album",Chenopodium album,1
same,"Post-emergence weed control effect, Green bristlegrass",green bristlegrass [9],1
same,"Post-emergence weed control effect, Portulaca oleracea",Portulaca oleracea,1
same,"Post-emergence weed control effect, Acalypha australis",Acalypha australis,1
same,"Post-emergence weed control effect, Amaranthus retroflexus",Amaranthus retroflexus [10],1
same,"Post-emergence weed control effect, Solanum nigrum",Solanum nigrum,2 (equivalent to 0 to 2.5% of the weed in the blank control area)
same,"Post-emergence weed control effect, Convolvulus arvensis",Convolvulus arvensis,1
same,"Post-emergence weed control effect, Barnyard grass",Barnyard grass [11],1
same,"Post-emergence weed control effect, Digitaria sanguinalis",Digitaria sanguinalis [12],2 (equivalent to 0 to 2.5% of the weed in the blank control area)
same,"Post-emergence weed control effect, Goose grass",goosegrass,2 (equivalent to 0 to 2.5% of the weed in the blank control area)
same,"Post-emergence weed control effect, Nutgrass flatsedge",nutgrass flatsedge,2 (equivalent to 0 to 2.5% of the weed in the blank control area)
same,Herbicidal Activity Humulus scandens,Humulus scandens [13],3 (equivalent to 2.6 to 5% of the weed in the blank control area)
same,Herbicidal Activity Green bristlegrass,green bristlegrass [14],1
same,Herbicidal Activity Barnyard grass,Barnyard grass [15],1
same,Herbicidal Activity Piemarker,Piemarker [16],1
